Measured values: PMC8824312 (Bioorganic chemistry, 2021)
Like-named read-outs stand apart in the source and are kept apart here.

What was measured:
[1] = target: T1, Salicylate hydroxylase (NahG) (Pseudomonas putida, UniProt P23262); assay: fluorometric titration
T1 sequence (P23262 1-434): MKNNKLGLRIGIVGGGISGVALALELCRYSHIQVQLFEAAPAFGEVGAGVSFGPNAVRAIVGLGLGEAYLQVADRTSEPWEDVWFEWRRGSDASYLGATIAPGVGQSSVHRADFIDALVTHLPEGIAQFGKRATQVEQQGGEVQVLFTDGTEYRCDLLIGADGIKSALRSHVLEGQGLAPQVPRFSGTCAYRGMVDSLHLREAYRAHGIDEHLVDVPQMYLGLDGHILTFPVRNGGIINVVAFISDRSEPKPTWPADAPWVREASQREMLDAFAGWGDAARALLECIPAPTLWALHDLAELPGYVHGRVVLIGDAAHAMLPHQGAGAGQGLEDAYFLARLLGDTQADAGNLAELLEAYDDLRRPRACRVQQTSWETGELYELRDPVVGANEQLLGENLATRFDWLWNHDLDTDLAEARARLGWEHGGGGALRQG

[2] = target: T1, Salicylate hydroxylase (NahG); assay: fluorometric titration; format: binding
[3] = substrate: NC(=O)C1=CN([C@@H]2O[C@H](COP(=O)(O)OP(=O)(O)OC[C@H]3O[C@@H](n4cnc5c(N)ncnc54)[C@H](O)[C@@H]3O)[C@@H](O)[C@H]2O)C=CC1; assay: initial rate of NADH consumption, spectrophotometric; format: biochemical, Pseudomonas putida; details: pH 8.5, I = 0.21 M (NaCl), 25 °C, salicylate, FAD as cofactor

Cc1cc2nc3c(=O)[nH]c(=O)nc-3n(C[C@H](O)[C@H](O)[C@H](O)COP(=O)(O)OP(=O)(O)OC[C@H]3O[C@@H](n4cnc5c(N)ncnc54)[C@H](O)[C@@H]3O)c2cc1C [Flavin adenine dinucleotide]
Kd [1]: 36 ± 8 nM

Cc1cc2nc3c(=O)[nH]c(=O)nc-3n(C[C@H](O)[C@H](O)[C@H](O)COP(=O)(O)O)c2cc1C [riboflavin 5′-monophosphate]
Kd [1]: 2200 ± 200 nM

O=C(O)c1ccccc1O [salicylate]
Kd [2]: 280 ± 30 nM

B1: Salicylate hydroxylase (NahG) (Pseudomonas putida) (protein)
chain: T1 sequence (P23262 1-434)
Km [3]: 27 µM
